Measurements from US20190231785A1, “PHOSPHODIESTERASE INHIBITOR TREATMENT” (Cyrano Therapeutics, Inc., priority 2012, published 2019).

Tested on: asthmatic patients
Test: sGaw after dry powder inhalation, dose escalating single blind study (Examples 5 and 6)
Conditions: 1 mg IBMX
Procedure: (§1) To test this theory, asthmatic patients are enrolled in a dose escalating single blind study. On arrival to the clinic, subjects are allowed to rest for 20 minutes before baseline measurements of FEV1 (six recordings) and sGaw (five recordings) are made. Subjects receive a dry powder dispenser loaded with a dose of 2 mg theophylline or a dry powder carrier. […] After each inhalation, measurements of sGaw are made at 1, 3, 5, 10, 15, 20, 25, and 30 minutes.
On completion of the last recording, subjects inhale a 200 μg dose of salbutamol from a metered inhaler and a further measurement of sGaw is made after 15 minutes. Subjects are also monitored for coughing and are questioned about the taste of the drug.
as §1, with “Asthmatic patients” for “To test this theory, asthmatic patients”, “of 1” for “of 2”, “mg IBMX formulated as a dry powder” for “mg theophylline”
On completion of the last recording, subjects inhale a 200 μg dose of salbutamol from a metered inhaler and a further measurement of sGaw mad after 15 minutes. Subjects are also be monitored for coughing and are questioned about the taste of the drug.

For `CC(C)Cn1c(=O)n(C)c(=O)c2[nH]cnc21` [IBMX, 3-isobutyl-1-methylxanthine], the “increase in sGaw compared with 200 μg salbutamol” value was “comparable with that produced by salbutamol”, the “sGaw above the baseline measurement after 30 minutes” value was 20% and the “time until sGaw baseline is reached” value was “one and a half”.
